Data as given in patent US9056067B2, “Pharmaceutical composition for enhancing immunity, and extract of Poria” (Sinphar Pharmaceutical Co., Ltd., priority 2003, dated 2015).
“And” between values parts separate entries of the source, which are not always exact repeats. Equal entries are not always repeated.

How the values were obtained:
Format in all cases: in vivo, mice
IgM = test: Serum level of IgM (ELISA); settings: for Dose with significant increase in serum level of IgM: oral
Procedure: (§1) […] […] The control group was the mice feeding with an equal volume of saline (0.85% of NaCl). Mice were sacrificed at day five, and both the serum and spleen cells were collected. The sera were subsequently used to measure the concentration of IgG, IgM and IgA. The spleen cells were plated onto a 100 mm diameter culture plate and incubated at 37° C. for three hours. The non-adherent cells containing T-lymphocytes, B-lymphocytes and NK cells were collected and properly diluted as described in each assay.
(§2) The mouse to be sacrificed was cervical dislocated and sterilized with 70% ethanol. The cardiac punctuation was performed first to withdraw the blood. After the haemagglutination, the blood sample was subjected to centrifugation and the serum was collect. For isolation of spleen cells, the peritoneum was opened to remove the spleen. The fresh spleen was transferred to a culture plate containing 10 ml of RPMI-1640 culture medium. The spleen was then ground over a fine mesh to release the spleen cells. The spleen cells suspending in the medium were then removed and transferred to a 50-ml conical centrifuge tube. The tube was subjected to centrifugation at 1300 rpm for 10 min. The supernatant was discarded and the pellet was re-suspended in 1 ml of cold RBC lysing buffer containing EDTA-NH4Cl. The cells were incubated at room temperature for 10 min, followed by washing the cells three times with culture medium by centrifugation. The spleen cells were plated onto a 100 mm diameter culture plate and incubated at 37° C. for three hours. The non-adherent cells containing T-lymphocytes, B-lymphocytes and NK cells were collected and properly diluted as described in each assay.
(§3) An ELISA was performed in our study to measure the immunoglobulin concentration. Briefly, the spleen cells (5×10^5 cells/ml) were cultured in a medium containing RPMI 1640 supplemented with 10% fetal bovine serum (FBS), 2 mM L-glutamine, antibiotics and 5 μg/ml lipopolysaccharide (LPS; 1 μg/10^5 cells) for 5 days. LPS is a polyclonal activator of B lymphocyte. Culture spleen cell supernatants were collected at day 3, 4 and 5. IgA, IgG and IgM concentrations were measured using a sandwich ELISA technique.
The procedure for IgM assay was similar to that for IgG assay, except that the samples were 1/10^4 diluted and standard IgM ranged from 1 μg/ml to 0.0156 μg/ml were added (100 μl/well). The secondary antibody for the assay was HRP-conjugated goat anti-mouse IgM (1:1,000 diluted; heavy chain-specific; Zymed Laboratory, CA).

IFN-γ = IFN-γ secretion by Con A-stimulated spleen cells (ELISA) after oral administration; settings: for IFN-γ secretion by spleen cell: Con A; for Dose with significantly augmented IFNγ secretion by ConA-stimulated splenic T cells: oral
Procedure: For the drug treatment, the animals were divided into four groups and oral administration with 1 ml of PCM, ranging from 10, 40 to 80 mg/kg/day, for four days. […] The control group was the mice feeding with an equal volume of saline (0.85% of NaCl). Mice were sacrificed at day five, and both the serum and spleen cells were collected. The sera were subsequently used to measure the concentration of IgG, IgM and IgA. The spleen cells were plated onto a 100 mm diameter culture plate and incubated at 37° C. for three hours. The non-adherent cells containing T-lymphocytes, B-lymphocytes and NK cells were collected and properly diluted as described in each assay.
as §2
For the quantitative analysis of IFN-γ and IL-10, the spleen cells (1×10^6 cells/ml) were cultured in a medium containing RPMI 1640 supplemented with 10% fetal bovine serum (FBS), 2 mM L-glutamine, antibiotics and 1 μg/ml concanavalin A (Con A) for 3 days. Con A is one of the polyclonal activators for T lymphocyte. Culture spleen cell supernatants were collected. The IFNγ and IL-10 concentrations were measured using a cytokine ELISA set (Cyto Set ELISA kit) purchased from R&D Systems (MN, USA).
Cyto Set ELISA was performed as follows: A 96-well microtiter plate (Nunc-Immuno Plate, MaxiSorp, Nunc, Denmark) was precoated with capture antibodies at 4° C. overnight. The capture antibody was a rat monoclonal antibody to mouse IL-10. The samples to be tested and standard IL-10 ranged from 500 pg/ml to 15.6 pg/ml were added (100 μl/well). The plate was then incubated at 37° C. for 20 min. At the end of incubation, the plate was washed five times, followed by adding the biotinylated goat anti IL-10 polyclonal antibody. The color was developed by incubating the plate with a HRP-conjugated streptoavidin (Zymed, CA, USA), followed by a substrate solution containing hydrogen peroxide and tetramethylbenzidine (TMB). The reaction continued for 30 min at room temperature, and was stopped by adding 100 μl of 2N of sulfuric acid. The absorbence at 450 nm in each well was read using an ELISA reader (EL311, BioTek, Winooski, Vt.), and the data was analyzed using log-logit model.
Cyto Set ELISA of IFN-γ was similar to that of IL-10, except that the capture antibody was a rat monoclonal antibody to mouse IFN-γ, and secondary antibody was biotinylated goat anti IFN-γ polyclonal antibody.
TH1-type cytokines, such as interleukin-2 (IL-2), interferon-γ (IFN-γ) induces the cellular immune response. Whereas, TH2-type cytokines, such as interleukin-4 (IL-4), interleukin-5 (IL-5), interleukin-6 (IL-6), stimulates the B lymphocyte-mediated humoral immune response. […] Spleen cells isolated from the mice treated with PCM and its purified components, such as PCM-K1, -K2, -K3 and K4, were cultured for five days in the presence of ConA. […]

IgG = test: Serum level of IgG (ELISA)
Procedure: as §1, §2, §3
A 96-well microtiter plate (Nunc-Immuno Plate, MaxiSorp, Nunc, Denmark) was precoated with 100 ng/well of capture antibodies at 4° C. overnight. The capture antibody was a rabbit anti-mouse IgG+IgA+IgM antibody (Zymed Laboratory, CA). The plate was washed with PBS-0.05% Tween 20 solution and blocked with PBS-1% gelatin. After the blocking, the properly diluted samples (1/10^5 diluted) and standard IgG ranged from 0.25 μg/ml to 0.039 μg/ml were added (100 μl/well). The plate was then incubated at 37° C. for 2 h. At the end of incubation, HRP-conjugated goat anti-mouse IgG (1:2,000 diluted; anti-whole IgG molecule; Zymed Laboratory, CA) was added (100 μl/well). After 1 h of incubation at 37° C., the color was developed using a substrate solution containing 0.1 M citrate buffer, pH 4.5, 0.03% H2O2 and 0.1% of o-phenylenediamine. The absorbence at 490 nm in each well was read using an ELISA reader (EL311, BioTek, VT), and the data was analyzed using log-logit model.

[1] = oral 10 mg/kg/day for four days
[2] = oral 20 mg/kg/day for four days

C=C(CC[C@@H](C(=O)O)[C@H]1[C@H](O)C[C@@]2(C)C3=CC[C@H]4C(C)(C)C(=O)CC[C@]4(C)C3=CC[C@]12C)C(C)C [K3]
Dose with significant increase in serum level of IgM (IgM): 5 mg/kg/day | Serum immunoglobulin concentration IgM (IgM; oral 5 mg/kg/day for four days): 1.63 ± 0.11 mg/mL | Serum immunoglobulin concentration IgM (IgM; [1]): 1.53 ± 0.14 mg/mL | Serum immunoglobulin concentration IgM (IgM; [2]): 1.53 ± 0.13 mg/mL | IFN-γ secretion by spleen cell (IFN-γ; oral 5 mg/kg/day for four days): 917.07 ± 130.41 pg/mL | IFN-γ secretion by spleen cell (IFN-γ; [1]): 449.74 ± 100.67 pg/mL | IFN-γ secretion by spleen cell (IFN-γ; [2]): 176.20 ± 45.96 pg/mL | Dose with significantly augmented IFNγ secretion by ConA-stimulated splenic T cells (IFN-γ; listed as PCM-K3): 5 mg/kg/day and 10 mg/kg/day | Serum immunoglobulin concentration IgG (IgG; oral 5 mg/kg/day for four days): 1.32 ± 0.09 mg/mL | Serum immunoglobulin concentration IgG (IgG; [1]): 1.28 ± 0.13 mg/mL | Serum immunoglobulin concentration IgG (IgG; [2]): 1.14 ± 0.11 mg/mL

C=C(CCC(C(=O)O)C1C(O)CC2(C)C3=CCC4C(C)(CCC(O)C4(C)C)C3=CCC12C)C(C)C (stereo not shown) [K4]
Dose with significant increase in serum level of IgM (IgM): 5 mg/kg/day | Serum immunoglobulin concentration IgM (IgM; oral 5 mg/kg/day for four days): 2.65 ± 0.21 mg/mL | Serum immunoglobulin concentration IgM (IgM; [1]): 2.86 ± 0.16 mg/mL | Serum immunoglobulin concentration IgM (IgM; [2]): 2.36 ± 0.16 mg/mL | Dose with significantly augmented IFNγ secretion by ConA-stimulated splenic T cells (IFN-γ): 20 mg/kg/day | IFN-γ secretion by spleen cell (IFN-γ; oral 5 mg/kg/day for four days): 240.45 ± 107.83 pg/mL | IFN-γ secretion by spleen cell (IFN-γ; [1]): 252.26 ± 103.76 pg/mL | IFN-γ secretion by spleen cell (IFN-γ; [2]): 292.00 ± 77.77 pg/mL | Serum immunoglobulin concentration IgG (IgG; oral 5 mg/kg/day for four days): 3.75 ± 0.18 mg/mL | Serum immunoglobulin concentration IgG (IgG; [1]): 4.33 ± 0.29 mg/mL | Serum immunoglobulin concentration IgG (IgG; [2]): 4.18 ± 0.25 mg/mL
